Measurements as given in ChEMBL document CHEMBL1201862, “PubChem BioAssay data set” (2004).
Activity calls are given as the source filed them.

Key:
[1] = biological target: T1, Replicative DNA helicase DnaB (Mycobacterium tuberculosis, UniProt P9WMR3); experiment: DnaB intein splicing inhibitors, dose response, biochemical, cell-free fluorescence (AID 449749); type: functional
T1 sequence (P9WMR3 whole entry): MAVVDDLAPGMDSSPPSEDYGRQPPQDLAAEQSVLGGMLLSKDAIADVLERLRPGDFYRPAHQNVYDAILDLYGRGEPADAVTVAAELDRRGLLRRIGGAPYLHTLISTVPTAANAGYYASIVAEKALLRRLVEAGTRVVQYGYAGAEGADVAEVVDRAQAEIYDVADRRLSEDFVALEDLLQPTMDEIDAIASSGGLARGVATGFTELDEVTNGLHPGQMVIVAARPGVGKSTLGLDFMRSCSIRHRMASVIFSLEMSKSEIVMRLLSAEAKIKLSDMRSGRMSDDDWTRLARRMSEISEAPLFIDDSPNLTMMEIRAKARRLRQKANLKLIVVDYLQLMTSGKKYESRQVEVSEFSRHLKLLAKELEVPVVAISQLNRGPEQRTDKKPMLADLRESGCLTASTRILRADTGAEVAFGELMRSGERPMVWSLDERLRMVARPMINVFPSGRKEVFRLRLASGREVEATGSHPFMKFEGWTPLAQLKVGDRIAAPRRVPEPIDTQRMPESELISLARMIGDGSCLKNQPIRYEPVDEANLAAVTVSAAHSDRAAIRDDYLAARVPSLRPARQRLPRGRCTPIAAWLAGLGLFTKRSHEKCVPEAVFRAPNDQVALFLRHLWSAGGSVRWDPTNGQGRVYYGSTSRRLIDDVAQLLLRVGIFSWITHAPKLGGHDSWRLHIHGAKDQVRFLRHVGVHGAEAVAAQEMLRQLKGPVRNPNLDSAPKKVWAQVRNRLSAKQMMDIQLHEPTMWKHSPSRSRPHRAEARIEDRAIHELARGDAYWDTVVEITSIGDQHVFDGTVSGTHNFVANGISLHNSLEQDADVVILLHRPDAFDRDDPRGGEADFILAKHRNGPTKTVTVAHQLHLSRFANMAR

[2] = Intein inhibitors as potential Tuberculosis drugs, a cytotoxicity screen. [Related pubchem assays (depositor defined):AID2221, AID2223, AID434968, AID435010, AID449749, AID449750, AID489010]; type: functional
[3] = microbe, parasite or virus in culture; type: functional; details: Mycobacterium tuberculosis
[4] = cytotoxicity in HEK-293T cells, dose response, cytotoxicity control for BCR NF-kB inhibitor project, luminescence, B-cell screen hits (AID 489021); type: functional, cell-based;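 further: HEK-293T cells carrying an NF-kB luciferase reporter; cells exposed to compound for about 14 hours before viability readout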
Protein RecA = biological target: T2, Protein RecA (Mycobacterium tuberculosis, UniProt P9WHJ3); experiment: Fluorescence Cell-Free Homogeneous Dose Retest to Identify Inhibitors of RecA-Intein Splicing Activity. [Related pubchem assays (depositor defined):AID2097, AID2223, AID489010, AID492950]; type: functional
T2 sequence (P9WHJ3 whole entry): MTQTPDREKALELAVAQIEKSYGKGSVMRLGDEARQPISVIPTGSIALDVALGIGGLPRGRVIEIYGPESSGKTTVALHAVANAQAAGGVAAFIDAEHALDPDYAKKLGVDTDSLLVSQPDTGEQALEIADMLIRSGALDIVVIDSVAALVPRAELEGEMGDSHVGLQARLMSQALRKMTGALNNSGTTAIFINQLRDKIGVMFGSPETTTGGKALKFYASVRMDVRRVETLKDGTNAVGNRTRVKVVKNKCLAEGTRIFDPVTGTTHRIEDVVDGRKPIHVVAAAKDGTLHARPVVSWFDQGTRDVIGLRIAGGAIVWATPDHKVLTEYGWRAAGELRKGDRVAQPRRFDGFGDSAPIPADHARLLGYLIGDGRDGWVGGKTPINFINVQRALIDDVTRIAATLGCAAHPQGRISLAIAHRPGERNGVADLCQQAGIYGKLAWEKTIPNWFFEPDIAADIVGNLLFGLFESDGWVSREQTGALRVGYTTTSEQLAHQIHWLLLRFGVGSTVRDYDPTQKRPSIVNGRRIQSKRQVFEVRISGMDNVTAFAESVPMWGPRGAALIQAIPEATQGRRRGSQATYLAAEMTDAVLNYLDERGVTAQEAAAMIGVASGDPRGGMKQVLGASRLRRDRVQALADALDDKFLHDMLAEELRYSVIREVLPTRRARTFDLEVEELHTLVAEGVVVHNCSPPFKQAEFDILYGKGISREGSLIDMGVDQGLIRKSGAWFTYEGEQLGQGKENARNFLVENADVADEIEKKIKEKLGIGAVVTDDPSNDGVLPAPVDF

BJ [5] = experiment: cytotoxicity toward Ras-transformed BJeLR fibroblasts, dose response, cell-based, alamar blue fluorescence, cherrypicked samples (AID 2631); type: functional; details: Homo sapiens;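 further: confirmatory dose-response assay in RAS-dependent BJ fibroblasts engineered with TERT, LT and ST, with cytotoxicity read by fluorescence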
BJ [6] = experiment: cells; type: functional, cell-based; details: Homo sapiens
Paired box protein Pax-8 = Paired box protein Pax-8 (Homo sapiens, UniProt Q06710); experiment: inhibitors of PAX8-driven TPO luciferase reporter, dose response, RMG-I cells, cherry-pick (AID 687027); type: functional, cell-based;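 further: luciferase reporter driven by Pax8 target thyroperoxidase promoter measured by SteadyGlo luminescence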
[7] = cytotoxicity toward DRD oncogenic fibroblasts, dose response, cell-based, non-viral oncogenic, luminescence (AID 1934); type: functional; details: Homo sapiens
BJ [8] = experiment: cytotoxicity toward BJ-TERT-LT-ST fibroblasts, dose response, cell-based, RAS-independent, luminescence (AID 1935); type: functional; details: Homo sapiens;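 further: BJ fibroblasts immortalized with TERT plus LT and ST oncogenes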
[9] = non-specific cell cytotoxicity, dose response, cytotoxicity control for PAX8 inhibitor project, plate reader, dry powder samples (AID 743021); type: functional, cell-based
BJ [10] = experiment: cytotoxicity toward BJ-TERT fibroblasts, dose response, cell-based, RAS-independent, luminescence (AID 1933); type: functional; details: Homo sapiens
[11] = biological target: T3, Heat shock factor protein 1 (Mus musculus, UniProt P38532); experiment: inhibition of MG132-induced HSE-luciferase signal, confirmation, cell-based, NIH3T3, luminescence, dose retest (AID 2382); type: functional;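 further: NIH3T3 fibroblasts with HSF1-driven luciferase reporter stressed by proteasome inhibitor MG132; luminescence from HSF1-driven luciferase expression after 8 hours of MG132 stress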
T3 sequence (P38532 whole entry): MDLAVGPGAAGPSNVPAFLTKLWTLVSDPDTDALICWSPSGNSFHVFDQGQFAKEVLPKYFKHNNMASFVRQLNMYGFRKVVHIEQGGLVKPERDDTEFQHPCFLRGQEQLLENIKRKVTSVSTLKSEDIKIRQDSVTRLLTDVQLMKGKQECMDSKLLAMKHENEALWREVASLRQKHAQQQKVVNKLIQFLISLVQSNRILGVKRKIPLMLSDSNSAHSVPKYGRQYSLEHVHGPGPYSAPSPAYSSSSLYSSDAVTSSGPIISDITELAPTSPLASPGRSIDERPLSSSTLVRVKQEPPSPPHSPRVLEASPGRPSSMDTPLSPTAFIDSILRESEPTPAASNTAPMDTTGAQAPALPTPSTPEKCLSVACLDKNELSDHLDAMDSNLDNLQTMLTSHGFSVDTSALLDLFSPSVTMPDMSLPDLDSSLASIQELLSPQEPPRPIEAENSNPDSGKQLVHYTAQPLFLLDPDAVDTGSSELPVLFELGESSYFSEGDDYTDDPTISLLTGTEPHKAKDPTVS

[12] = biological target: T4, Voltage-gated N-type calcium channel alpha-1B subunit/Amyloid beta A4 precursor protein-binding family A member 1 (Homo sapiens, UniProt Q00975+Q02410); type: protein assay
CHO-K1 = experiment: (§1) Counterscreen for antagonists of the orexin 1 receptor (OX1R; HCRTR1): Homogeneous time resolved fluorescence (HTRF)-based cell-based dose response assay to identify antagonists of the parental CHO-K1 cell line. [Related pubchem assays (depositor defined):AID434989, AID435008, AID463079, AID485270, AID492963, AID492964, AID492965, AID493232, AID504699, AID504701]; type: functional; details: Cricetulus griseus
[13] = biological target: Luciferin 4-monooxygenase (Photinus pyralis, UniProt P08659); experiment: firefly luciferase enzyme inhibitors, dose response, biochemical, luminescence (AID 1891)
[14] = biological target: T4, Voltage-gated N-type calcium channel alpha-1B subunit/Amyloid beta A4 precursor protein-binding family A member 1; type: protein assay; remark: listed apart in the source
Beta Lactamase = Beta Lactamase (Pseudomonas aeruginosa, UniProt Q932Y6); experiment: beta-lactamase reporter inhibitor potency, dose response, artefact control for NOD2-RIPK2 interaction inhibitor project, BLA reporter cells, FRET fluorescence (AID 651552); type: functional, cell-based
[15] = Fluorescence-based cell-based high throughput dose response assay for inhibitors of the interaction of nucleotide-binding oligomerization domain containing 2 (NOD2) and the receptor-interacting serine-threonine kinase 2 (RIPK2).; type: functional; details: Homo sapiens
[16] = biological target: T5, Orexin/Hypocretin receptor type 1 (Homo sapiens, UniProt O43613); experiment: (§2) Fluorescence-based cell-based high throughput dose response assay for antagonists of the orexin 1 receptor (OX1R; HCRTR1). [Related pubchem assays (depositor defined):AID434989, AID435008, AID463079, AID485270, AID492963, AID492964, AID492965, AID493232, AID504717, AID504718]; type: functional
T5 sequence (O43613 whole entry): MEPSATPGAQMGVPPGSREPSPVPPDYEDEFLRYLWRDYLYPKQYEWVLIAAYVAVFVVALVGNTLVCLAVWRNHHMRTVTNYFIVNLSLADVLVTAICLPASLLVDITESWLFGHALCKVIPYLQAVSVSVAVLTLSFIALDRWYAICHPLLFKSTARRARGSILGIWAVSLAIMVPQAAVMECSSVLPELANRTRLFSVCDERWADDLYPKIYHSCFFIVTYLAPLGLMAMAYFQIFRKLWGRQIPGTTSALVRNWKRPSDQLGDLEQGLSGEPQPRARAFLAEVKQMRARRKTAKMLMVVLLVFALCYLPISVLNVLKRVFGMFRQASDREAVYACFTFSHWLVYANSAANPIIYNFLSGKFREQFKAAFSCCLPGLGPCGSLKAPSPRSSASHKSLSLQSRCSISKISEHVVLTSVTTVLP

[17] = biological target: T6, Sphingosine 1-phosphate receptor 4 (Homo sapiens, UniProt O95977); experiment: Fluorescence dose response cell-based high throughput screening assay for antagonists of the Sphingosine 1-Phosphate Receptor 4 (S1P4). [Related pubchem assays: 1524 (Confirmation in triplicates.), 1510 (Primary screen.)]; type: functional
T6 sequence (O95977 whole entry): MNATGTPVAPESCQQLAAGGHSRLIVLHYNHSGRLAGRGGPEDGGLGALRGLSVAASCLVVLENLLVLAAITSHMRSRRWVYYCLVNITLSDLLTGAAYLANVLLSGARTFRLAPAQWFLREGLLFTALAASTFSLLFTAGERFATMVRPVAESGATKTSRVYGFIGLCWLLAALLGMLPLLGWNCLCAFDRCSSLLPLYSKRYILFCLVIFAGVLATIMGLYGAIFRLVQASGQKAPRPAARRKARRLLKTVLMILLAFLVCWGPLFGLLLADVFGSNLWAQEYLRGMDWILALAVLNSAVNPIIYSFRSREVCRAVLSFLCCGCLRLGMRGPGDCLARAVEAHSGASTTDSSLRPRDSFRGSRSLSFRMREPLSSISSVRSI

[18] = Luminescence Cell-Based Dose Confirmation HTS to Identify Inhibitors of Platelet Dense Granule Release. [Related pubchem assays: 1663 (Primary HTS), 1678 (Summary of Project)]; type: functional
[19] = biological target: Heat shock protein HSP 90-alpha (Homo sapiens, UniProt P07900); type: functional, organism-based
[20] = biological target: T5, Orexin/Hypocretin receptor type 1; experiment: as §2, with “Homogeneous Time Resolved Fluorescence (HTRF)-based” for “Fluorescence-based”; type: functional
[21] = biological target: Sphingosine 1-phosphate receptor 1 (Homo sapiens, UniProt P21453); type: functional;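 further: Tango beta-arrestin reporter U2OS cells stimulated with S1P near its EC80; inhibitor potency meaning antagonism of receptor activation by the natural agonist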
[22] = as §1, with “Fluorescence-based” for “Homogeneous time resolved fluorescence (HTRF)-based”, “cell-based high throughput” for “cell-based”, “CHO” for “CHO-K1”; type: functional
T-cell = experiment: inhibitors of CD8+ T cell–vesicle binding, dose response, mouse 2C CD8+ T cells, flow cytometry (AID 485284); type: functional
[23] = biological target: T6, Sphingosine 1-phosphate receptor 4; experiment: Late-stage fluorescence dose response cell-based assay to identify agonists of the Sphingosine 1-Phosphate Receptor 4 (S1P4): purchased compounds EC50. [Related pubchem assays (depositor defined):AID1509, AID1523, AID1563, AID1686, AID1701, AID1801]; type: functional

T4 sequence (Q00975 whole entry): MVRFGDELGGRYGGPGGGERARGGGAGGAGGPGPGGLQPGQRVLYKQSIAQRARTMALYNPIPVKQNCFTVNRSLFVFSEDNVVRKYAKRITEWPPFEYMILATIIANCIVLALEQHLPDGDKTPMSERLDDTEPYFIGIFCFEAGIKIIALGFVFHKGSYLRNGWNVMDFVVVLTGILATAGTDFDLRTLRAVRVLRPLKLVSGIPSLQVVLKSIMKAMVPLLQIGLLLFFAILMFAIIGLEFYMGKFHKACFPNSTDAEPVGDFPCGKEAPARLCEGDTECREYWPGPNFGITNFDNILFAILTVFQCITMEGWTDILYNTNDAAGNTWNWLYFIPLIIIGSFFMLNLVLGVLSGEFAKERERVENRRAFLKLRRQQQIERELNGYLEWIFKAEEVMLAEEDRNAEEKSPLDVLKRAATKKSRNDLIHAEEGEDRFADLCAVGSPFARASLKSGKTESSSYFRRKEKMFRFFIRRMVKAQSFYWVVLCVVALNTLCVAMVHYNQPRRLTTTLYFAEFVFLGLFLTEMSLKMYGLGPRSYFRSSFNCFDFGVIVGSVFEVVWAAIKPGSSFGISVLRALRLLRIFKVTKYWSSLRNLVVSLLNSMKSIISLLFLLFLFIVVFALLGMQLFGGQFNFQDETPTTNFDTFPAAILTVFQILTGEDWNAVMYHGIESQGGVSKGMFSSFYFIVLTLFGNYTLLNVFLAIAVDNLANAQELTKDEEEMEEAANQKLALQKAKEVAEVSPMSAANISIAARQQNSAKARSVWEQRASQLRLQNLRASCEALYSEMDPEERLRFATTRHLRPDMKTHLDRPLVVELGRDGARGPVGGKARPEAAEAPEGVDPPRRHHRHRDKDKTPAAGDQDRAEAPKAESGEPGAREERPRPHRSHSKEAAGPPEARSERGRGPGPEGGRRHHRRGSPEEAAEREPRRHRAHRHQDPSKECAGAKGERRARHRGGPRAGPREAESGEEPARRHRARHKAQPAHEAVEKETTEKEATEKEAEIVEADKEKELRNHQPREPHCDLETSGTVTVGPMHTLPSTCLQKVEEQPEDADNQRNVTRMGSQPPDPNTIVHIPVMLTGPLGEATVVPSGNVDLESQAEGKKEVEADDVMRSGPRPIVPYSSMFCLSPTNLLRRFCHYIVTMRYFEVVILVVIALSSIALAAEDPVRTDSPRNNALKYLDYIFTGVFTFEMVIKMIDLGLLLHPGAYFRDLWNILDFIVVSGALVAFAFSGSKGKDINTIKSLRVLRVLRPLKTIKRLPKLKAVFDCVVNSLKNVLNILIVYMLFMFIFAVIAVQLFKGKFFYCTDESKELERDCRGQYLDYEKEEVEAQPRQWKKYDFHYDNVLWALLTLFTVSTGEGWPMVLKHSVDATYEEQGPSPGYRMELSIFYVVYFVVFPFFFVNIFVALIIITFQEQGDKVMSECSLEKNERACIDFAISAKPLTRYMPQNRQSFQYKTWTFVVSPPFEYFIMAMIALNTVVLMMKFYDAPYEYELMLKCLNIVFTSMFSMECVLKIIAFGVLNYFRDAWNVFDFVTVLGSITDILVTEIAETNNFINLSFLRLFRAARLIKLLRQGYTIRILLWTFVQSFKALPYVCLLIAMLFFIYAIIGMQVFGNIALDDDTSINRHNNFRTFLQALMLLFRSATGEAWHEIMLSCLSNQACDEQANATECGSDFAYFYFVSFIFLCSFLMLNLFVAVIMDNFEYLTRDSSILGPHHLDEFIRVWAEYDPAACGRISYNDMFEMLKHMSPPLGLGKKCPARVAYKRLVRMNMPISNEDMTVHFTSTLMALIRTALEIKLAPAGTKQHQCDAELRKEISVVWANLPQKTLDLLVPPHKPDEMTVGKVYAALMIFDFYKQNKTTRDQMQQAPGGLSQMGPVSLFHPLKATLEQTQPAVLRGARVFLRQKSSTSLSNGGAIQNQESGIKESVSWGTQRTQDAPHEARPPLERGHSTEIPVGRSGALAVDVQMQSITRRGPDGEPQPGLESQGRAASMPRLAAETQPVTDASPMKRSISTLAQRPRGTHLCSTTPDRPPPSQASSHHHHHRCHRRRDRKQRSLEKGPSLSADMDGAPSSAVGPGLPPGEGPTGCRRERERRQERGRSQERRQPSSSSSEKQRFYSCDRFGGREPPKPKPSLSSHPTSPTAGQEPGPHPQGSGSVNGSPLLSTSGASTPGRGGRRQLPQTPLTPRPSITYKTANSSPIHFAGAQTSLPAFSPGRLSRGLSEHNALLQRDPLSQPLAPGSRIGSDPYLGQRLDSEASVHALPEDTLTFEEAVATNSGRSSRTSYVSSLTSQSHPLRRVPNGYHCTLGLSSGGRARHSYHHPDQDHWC
T4 sequence (Q02410 whole entry): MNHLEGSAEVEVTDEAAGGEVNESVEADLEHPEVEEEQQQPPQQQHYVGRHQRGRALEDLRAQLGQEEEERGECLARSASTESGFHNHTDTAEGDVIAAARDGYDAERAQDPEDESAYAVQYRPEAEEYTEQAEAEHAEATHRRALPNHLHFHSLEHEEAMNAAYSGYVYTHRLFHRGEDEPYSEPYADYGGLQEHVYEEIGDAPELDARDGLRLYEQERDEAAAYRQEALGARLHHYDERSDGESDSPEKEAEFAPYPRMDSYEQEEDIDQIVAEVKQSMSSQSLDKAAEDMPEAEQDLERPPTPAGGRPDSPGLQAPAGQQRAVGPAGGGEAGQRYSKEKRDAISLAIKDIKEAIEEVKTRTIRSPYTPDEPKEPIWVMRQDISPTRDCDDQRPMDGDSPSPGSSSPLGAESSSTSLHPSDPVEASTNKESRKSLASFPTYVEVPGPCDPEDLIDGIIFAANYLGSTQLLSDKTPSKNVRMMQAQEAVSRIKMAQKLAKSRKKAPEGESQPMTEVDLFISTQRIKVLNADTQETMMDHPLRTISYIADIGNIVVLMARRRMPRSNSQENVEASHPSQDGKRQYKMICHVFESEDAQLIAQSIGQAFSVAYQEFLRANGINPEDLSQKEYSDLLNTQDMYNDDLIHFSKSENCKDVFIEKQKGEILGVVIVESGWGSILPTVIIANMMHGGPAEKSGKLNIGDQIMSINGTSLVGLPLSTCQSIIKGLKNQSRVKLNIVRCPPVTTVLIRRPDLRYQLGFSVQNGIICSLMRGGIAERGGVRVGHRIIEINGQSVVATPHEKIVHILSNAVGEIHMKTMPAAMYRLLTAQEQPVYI
Chain of Sphingosine 1-phosphate receptor 1 (P21453 whole entry): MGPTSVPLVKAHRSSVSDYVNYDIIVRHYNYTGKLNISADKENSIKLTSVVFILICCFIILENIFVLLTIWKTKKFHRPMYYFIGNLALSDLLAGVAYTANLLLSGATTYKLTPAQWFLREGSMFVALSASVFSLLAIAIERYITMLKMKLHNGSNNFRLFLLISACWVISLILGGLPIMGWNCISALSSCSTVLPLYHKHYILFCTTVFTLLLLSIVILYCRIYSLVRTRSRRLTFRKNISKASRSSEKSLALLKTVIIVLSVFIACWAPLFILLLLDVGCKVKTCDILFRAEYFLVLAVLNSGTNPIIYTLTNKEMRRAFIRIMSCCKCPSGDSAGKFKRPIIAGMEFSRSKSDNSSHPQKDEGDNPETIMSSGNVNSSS
Chain of Paired box protein Pax-8 (Q06710 whole entry): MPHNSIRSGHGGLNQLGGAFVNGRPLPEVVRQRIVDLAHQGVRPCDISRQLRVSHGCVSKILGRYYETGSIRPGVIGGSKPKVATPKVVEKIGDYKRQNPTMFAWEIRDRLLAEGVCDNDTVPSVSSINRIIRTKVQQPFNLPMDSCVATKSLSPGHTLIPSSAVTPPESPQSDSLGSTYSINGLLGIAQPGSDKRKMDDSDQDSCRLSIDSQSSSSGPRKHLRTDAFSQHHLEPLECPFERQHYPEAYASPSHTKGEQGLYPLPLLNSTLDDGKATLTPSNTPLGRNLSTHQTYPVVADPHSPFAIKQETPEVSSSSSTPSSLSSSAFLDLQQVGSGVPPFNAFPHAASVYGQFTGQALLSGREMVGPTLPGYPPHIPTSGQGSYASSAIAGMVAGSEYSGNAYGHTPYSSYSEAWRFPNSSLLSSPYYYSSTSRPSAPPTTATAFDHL
Chain of Beta Lactamase (Q932Y6 whole entry, the tested form may be a part): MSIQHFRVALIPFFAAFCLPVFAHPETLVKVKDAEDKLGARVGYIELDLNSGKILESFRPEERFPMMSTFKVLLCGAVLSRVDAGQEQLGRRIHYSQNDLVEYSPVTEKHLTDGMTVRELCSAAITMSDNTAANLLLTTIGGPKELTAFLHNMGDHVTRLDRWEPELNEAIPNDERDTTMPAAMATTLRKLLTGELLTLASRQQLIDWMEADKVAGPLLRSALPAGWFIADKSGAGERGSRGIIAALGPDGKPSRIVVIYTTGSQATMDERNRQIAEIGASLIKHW
Chain of Luciferin 4-monooxygenase (P08659 whole entry): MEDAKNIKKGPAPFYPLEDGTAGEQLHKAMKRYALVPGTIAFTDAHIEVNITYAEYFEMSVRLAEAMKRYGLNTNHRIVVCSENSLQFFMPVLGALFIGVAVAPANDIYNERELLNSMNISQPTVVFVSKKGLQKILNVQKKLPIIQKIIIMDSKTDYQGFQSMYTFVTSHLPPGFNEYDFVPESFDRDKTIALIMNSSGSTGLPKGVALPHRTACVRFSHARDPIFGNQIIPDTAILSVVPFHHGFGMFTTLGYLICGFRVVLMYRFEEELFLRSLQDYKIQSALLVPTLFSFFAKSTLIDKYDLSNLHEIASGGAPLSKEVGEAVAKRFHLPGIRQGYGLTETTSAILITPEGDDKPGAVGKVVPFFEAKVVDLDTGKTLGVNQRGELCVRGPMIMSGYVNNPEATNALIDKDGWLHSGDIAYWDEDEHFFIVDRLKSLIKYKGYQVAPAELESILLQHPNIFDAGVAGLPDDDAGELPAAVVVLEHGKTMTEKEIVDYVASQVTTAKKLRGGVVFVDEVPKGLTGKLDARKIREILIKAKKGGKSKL

C=CCOc1ccccc1CN(C(=O)CCl)c1ccc2c(c1)OCO2
inactive: IC50 [4] 62.1 µM | EC50 (BJ [5]) > 66.7 µM
active: AC50 [1] 2.37 µM | CC50 [2] 2.07 µM | CC50 [3] 1.68 µM | EC50 (Protein RecA) 0.481 µM | EC50 (BJ [6]) 4.58 µM | AC50 (Paired box protein Pax-8) 5.46 µM | EC50 [7] 5.04 µM | AC50 [9] 9.67 µM | EC50 [11] 4.88 µM
inconclusive: EC50 (BJ [8]) 17.3 µM | EC50 (BJ [10]) 0.7 µM

O=C1C=C(c2ccc(Cl)cc2)C(=O)N1Nc1ccccc1
active: IC50 [12] 21.1 µM | IC50 [15] 1.03 µM | IC50 [16] 3.12 µM | IC50 [17] 1.95 µM | EC50 [18] 21.5 µM | AC50 [19] 0.267 µM | IC50 [20] 3.73 µM | IC50 [22] 4.98 µM
inactive: IC50 (CHO-K1) 50.7 µM | IC50 [14] > 50 µM | IC50 (Beta Lactamase) 13 µM
13.6 µM (not active): IC50 [21]
> 112 µM (not active): EC50 [13]

Cc1ccc(S(=O)(=O)N2CCC(NC(=O)c3ccccc3)CC2)cc1
active: EC50 (T-cell) 7.83 µM

Cc1nn(Cc2ccccc2)c(Cl)c1C(=O)OC(C)C(=O)NCc1ccccc1 (stereo not drawn)
inactive: EC50 [23] > 50 µM
